Test results from a melting point compilation (Tetko et al.; mined from patent text by program, amines drawn as free bases though some values may be those of a salt).

| melting point [°C] | Compound |
| --- | --- |
| 146 | C=CC[C@H]1C(=O)N(S(=O)(=O)c2cc3ccccc3s2)[C@@H]2CCN(C(=O)OCc3ccccc3)[C@H]21 (relative stereo) |
| 147 to 148 | N#CCCCN1CCN(c2nc3nccc(-c4ccncc4)n3n2)CC1 |
| 188 to 189 | CCc1nc2cc(Cl)c(Cl)nc2n1-c1ccc(CCNC(=O)NS(=O)(=O)c2ccc(C)cc2)cc1 |
| 94 to 96 | O=C(Cl)c1ccc(Cl)cc1Sc1ccccc1 |
| > 300 | CC1(C(=O)NN)C(=O)Nc2cc3[nH]c(-c4ccncc4)nc3cc21 (stereo not given) |
| 255 to 257 | CC(=O)c1ccc2c(c1)C1(c3ccccc3-2)c2ccccc2-c2ccc(C(C)=O)cc21 |
| 199 to 200 | COc1ccc2[nH]c3c(c2c1)CCN1CN(C)CCC31 (stereo not given) |
| 138 to 139 | CCN(CC)CCNC(=O)c1cc(Cl)c(N)cc1OCC(=O)Cc1ccccc1 |
| 163 to 165 | Cc1cc(SC2=C(O)CC(C3CCCC3)(C3CCCC3)OC2=O)c(C(C)(C)C)cc1N |
| 107 to 109 | O=[N+]([O-])C(=Cc1ccc(F)cc1)c1ccc(F)cc1 |
| 124 | CCOc1cc(OC)cc(O)c1C(=O)C=Cc1ccc(OC)cc1 |
| 69 to 71 | CSC(=NC#N)N(C)N |
| 276 to 277 | Cc1cc(CNC(=O)c2cc(-n3cnn(Cc4ccc(F)cc4)c3=O)n[nH]2)no1 |
| 112 | CCOC(=O)c1cc(OCCC2CCN(c3ccc(Cl)nn3)CC2)cs1 |
| 114 to 116 | O=C(N[C@@H](CO)c1nc2cc(Br)ccc2[nH]1)c1ccc(C(=O)N2CCCC2)c(Br)c1 |
| 108 to 121 | CCC(C)n1ccnc1S (stereo not given) |
| 129 to 130 | CC(=O)N(c1ccc(C(F)(F)F)cc1)c1nccc(-c2cccc(Cl)c2)n1 |
| 154 to 156 | COc1ccc2[nH]c(SCc3ncc(C)c(N4CCCCC4)c3Cl)nc2c1 |
| 102 | Cc1ccc(S(=O)(=O)OC(C)(c2ccccc2)C(F)(F)F)cc1 (stereo not given) |
| 171 to 173 | CC1(C)OC(=S)Nc2ccc(-c3ccccc3F)cc21 |
| 138 to 140 | CC(C)c1nc(C(c2ccccc2)c2ccccc2)cc(-c2ccc(F)cc2)c1CO |
| 170 | CCOC(=O)c1ccc(-c2ccc(O)c(-c3ccc(N(CC)CC)c(C(F)(F)F)c3)c2)cc1 |
| 150 to 152 | CCc1cccc(N(C(=O)CCC(=O)O)c2cc(C(C)(C)C)c(O)c(C(C)(C)C)c2)c1 |
| 143 to 147 | CCOC(=O)C1=C(C)NC(C)=C(C(=O)OCC=CC=Cc2ccccc2)C1c1cccc([N+](=O)[O-])c1 (stereo not given) |

| melting point [°C] | Compound |
| --- | --- |
| 268 to 270 | CC1(c2ccc([N+](=O)[O-])cc2)Cc2cc(O)c(Cl)c(Cl)c2C1=O (stereo not given) |
| 216 to 217 | CC(Cl)(Cl)C(NC(=O)c1ccc(Cl)cc1)NC(=NC#N)Nc1ccccc1F (stereo not given) |
| 237 to 238 | Cn1c2cc(C=O)ccc2c2nc3ccccc3nc21 |
| 120 | Nc1ccc(F)c(SC(F)(F)F)c1 |
| 68 to 71 | COc1ccc(C(CCCCC(=O)O)C2=C(C)C(=O)c3ccccc3C2=O)cc1 (stereo not given) |
| 161 to 163 | COCC1CN(c2ccc(C3CCNCC3)cc2)C(=O)O1 (racemic) |
| 203 to 205 | CSc1cnc2sccc2c1O |
| < 50 | CCCCc1nn2cccc(C(=O)OCC)c2c1C(=O)c1ccc(Br)cc1 |
| 189 to 190 | COC(=O)N1C2=C(C(=O)CC(C)(C)C2)C(c2ccc([N+](=O)[O-])cc2)C2=C1CC(C)(C)CC2=O |
| 148 to 149 | O=C1Cc2cc(OCc3ccc4ccccc4n3)ccc2N1c1ccccc1 |
| 107 to 108 | COC(=O)c1ccc(C(=O)CC(=O)c2ccccc2)cc1 |
| 152 to 153 | CC(C(=O)O)c1ccc(-n2cc(Cl)cn2)cc1 (stereo not given) |
| 156 to 159 | CCON=C(CC)C1=C(O)CC(c2ccc3c(c2)N(CC#N)C(=O)CO3)CC1=O (stereo not given) |
| 214 to 217 | O=C(NNC(=O)c1occ(-c2ccccc2)c1-c1ccccc1)c1ccc(O)c([N+](=O)[O-])c1 |
| 124 to 126 | CCCN(Cc1ccc(-c2ccccc2-c2nc(=O)o[nH]2)cc1)c1nn(C)cc1C(=O)O |
| 169 to 170 | COc1ccc2c(N)c3ccccc3nc2c1 |
| 247 | CCCCOc1nc(N)c2[nH]c(=O)n(CCCNc3cccc(CC(=O)O)c3)c2n1 |
| 96 to 97 | c1ccc(Sc2sc(-c3ccccc3)cc2-c2ccccc2)cc1 |
| 74 to 77 | Cc1cccc(-c2[nH]c(C(C)C)nc2-c2cccc(-c3cccnc3)c2)n1 |
| 107 to 108 | CCCc1c(OCCCOc2cccc3c2CCCC3)ccc2c1OC(CCC=O)(CCC=O)CC2=O |
| 178 to 179 | CC(C)c1nc(C(C)C)c(CSc2ccc(O)cc2)c(-c2ccc(F)cc2)c1CO |
| 131 | CNC(=S)C1(c2cccnc2)CCCCS1 (stereo not given) |
| 80 to 81 | O=C(O)CCCCC(Cc1ccc(F)cc1)C(=O)O (stereo not given) |
| 141 to 144 | CCN(CC)CC1CCCCN1CC(=O)N1c2ccccc2NC(=O)c2c1ccn2C (stereo not given) |

| melting point [°C] | Compound |
| --- | --- |
| 133 to 134 | Cc1cc2cc(C(=O)OCc3ccccc3)n(CC(=O)OC(C)(C)C)c2cc1C |
| 199 to 203 | Cc1csc2ccc3[nH]c4c(c3c12)CN(C(C)C)CC4 |
| 160 | C=C(Cc1ccccc1)C(=O)NN1CCN(C(=O)OC(C)(C)C)CC1 |
| 235 to 236 | CS(=O)(=O)NCc1ccc2[nH]cc(C(=O)C(=O)N3CCCC3)c2c1 |
| 143 | CC(C)(C)C(O)C(NC(=O)c1ccccc1)n1ccnc1 (stereo not given) |
| 160 to 163 | CC1(C)Oc2ccc(S(=O)(=O)c3ccccc3)cc2C(N)C1O (stereo not given) |
| 98 to 100 | CN(CCO)Cc1cc(C(=O)c2cccs2)cc(C(C)(C)C)c1O |
| 96 to 98 | COC(=O)c1cc(I)c(C(F)(F)F)cc1NC(C)=O |
| 109 to 110 | Cn1c(CCc2cc(C(F)(F)F)cc(C(F)(F)F)c2)c(Cc2c[nH]c3ccccc23)oc1=O |
| 103 to 107 | Cc1ccc(Sc2ncnc3c(C)csc23)cc1 |
| 194 to 197 | Cc1cncn1CC#CCN1CCCC1=O |
| 140 to 142 | Nc1c2c(nn1-c1ccc(Cl)cc1)CCCC2 |
| 129 to 132 | CCc1nn(C2CCCC2)c2cc(C(=O)Nc3ccc(C(=O)OC)cc3)ccc12 |
| 140 to 146 | COc1ccc(Cc2ncc(CO)c3cc(OC)c(OC)cc23)cc1OC |
| 147 to 149 | NC(=O)c1cc(-n2cccn2)ccc1N |
| 180 to 182 | O=C1CCC(N2Cc3c(OCc4ccc(CN5CCC(Oc6ccccc6)CC5)cc4)cccc3C2=O)C(=O)N1 (stereo not given) |
| 250 | NC(=O)c1cnc2c(F)c(F)ccc2c1 |
| 110 to 111 | CCCOc1cc(COc2c(CC)cccc2CC(=O)O)n(Cc2ccc3ccccc3n2)n1 |
| 218 to 220 | O=C(c1ccccc1)c1c[nH]c2cnccc12 |
| 169 to 170 | O=c1ccc(S(=O)(=O)n2ccc3ccccc32)n[nH]1 |
| 76 to 78 | Cc1cc(C2CC(C)(C)CC(C)(C)C2(O)C#C[Si](C)(C)C)ccc1F (stereo not given) |
| 142 | O=C(O)C1CC(O)CN1C(=O)c1ccc2c(c1)OCCO2 (stereo not given) |
| 95 to 96 | N#CSCC(=O)N1CCCC1 |
| 184 to 185 | O=C(Nc1cccc(C(F)(F)F)c1)Nc1ccc(OCc2ccccc2)cc1O |

| melting point [°C] | Compound |
| --- | --- |
| 144 to 145 | Clc1ccc(-n2nc3c(c2Br)CSCC3)cc1 |
| > 320 | O=C1NCc2c3c(c4[nH]c5ccccc5c4c21)Cc1ccc(C=Cc2ccccn2)cc1-3 |
| 206 to 208 | O=C(O)c1cccc(-c2nc(-c3ccc(C(F)(F)F)cc3)co2)c1 |
| 47 to 50 | CCOC(=O)C(=O)NCc1ccccc1 |
| 104 to 106 | COc1cc(Cl)ccc1-c1ccc(C(C)=O)cc1[N+](=O)[O-] |
| 201 to 203 | Cc1ccc(-c2cc3c(s2)CCCC(C(=O)Nc2ccc(CN(C)C4CCOCC4)cc2)=C3)cc1 |
| 115 to 117 | O=C(NC1=CCN(CCc2ccccc2)CC1)c1ccccc1 |
| 205 to 207 | Cc1sc(C)c2c1CCC=C2c1cn(C(c2ccccc2)(c2ccccc2)c2ccccc2)cn1 |
| 97 to 100 | C#CCNc1ccc(C(C)=O)cc1 |
| 192 to 194 | Nn1c(=O)c2cc(F)c(Cl)nc2n(C2CC2)c1=O |
| 280 to 283 | CCn1cc(C(=O)O)c(=O)c2cc(F)c(N3CC(C)(N)C3)cc21 |
| 207 to 210 | O=C1c2ccc(Nc3ccc(Cl)cc3)cc2C(=O)N1Cc1cccnc1 |
| 126 to 129 | CS(=O)(=O)Nc1ccc(N2CCC(O)CC2)cc1 |
| 170 to 173 | CC1=C(c2ccc(OCC(=O)O)c(Cl)c2Cl)CC(C)CC1=O (stereo not given) |
| 179 to 182 | COC1(OC)CN(c2nc3c(cc2F)C=C(C(=O)O)CN3c2ccc(F)cc2F)CC1C (stereo not given) |
| > 250 | O=C(O)Cn1c(-c2ccc(F)cc2)nc2cccnc21 |
| 174 to 175 | CN1CCNC(C(=O)Cn2c(-c3cc(Cl)ccn3)nc3cccnc32)C1 (stereo not given) |
| > 270 | CC1=C([N+](=O)[O-])C(c2cccc(Cl)c2Cl)c2c[nH]nc2N1 (stereo not given) |
| 75 to 77 | CC(=O)OCC1CC(OC(C)=O)C(n2cc(C(I)=CI)c(=O)[nH]c2=O)O1 (stereo not given) |
| 211 to 213 | COc1cc2[nH]c(C)c(C(=O)C(=O)N3CCC(Oc4ccc(C(F)(F)F)cc4)CC3)c2cc1OC |
| 133 to 134 | O=C(O)CCc1cn(Cc2ccc(OCc3csc(-c4ccccc4)n3)cc2)nc1-c1cccs1 |
| 117 to 118 | Cc1cc(CCCCCOc2c(C)cc(-c3cn(C)nn3)cc2C)on1 |
| 263 to 264 | Cc1c(-c2ccc(Cl)cc2)ccc2nc(C(=O)NC(Cc3ccc(OCc4ccccc4)cc3)C(=O)O)cn12 (stereo not given) |

| Compound | melting point [°C] |
| --- | --- |
| O=c1c2cc(O)ccc2nc(CSc2ncnc3[nH]cnc23)n1-c1ccccc1Cl | 186 to 214 |
| COc1cccc2cc(C3CCN(C)CC3)oc12 | 74 to 75 |
| O=[N+]([O-])c1ccc(OCCN2CC=C(c3ccc(F)cc3)CC2)cc1 | 104 to 107 |
| CC(Cc1ccc(C(=O)OCOC(=O)C(C)(C)C)cc1)NCC(O)c1ccc(O)c(CO)c1 (stereo not given) | 55 to 57 |
| CN1CCC(c2cc3cccc(O)c3o2)CC1 | 144 to 146 |
